In one assay the target is T1, B-Raf kinase (Homo sapiens, UniProt P15056).
T1 construct: GST (N); purchased Sigma
Briefly: Biochemical assay for B-Raf.1 (coupled pyruvate kinase/lactate dehydrogenase). Conditions: read-out: BRAF.1 IC50. Put shortly: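 Reaction rates over the 4–5 h window of a continuous 6 h, 30 °C read were converted to percent inhibition and fitted for IC50. B-Raf (0.13 nM) phosphorylated 30.1 nM MEK with 1 mM ATP; ADP coupled via PK/LDH to NADH loss at 340 nm, 1% DMSO final.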

In a further assay the target is T2, C-Raf kinase (Homo sapiens, UniProt P04049, Y340D/Y341D).
T2 construct: Y340D,; GST (N); purchased Sigma
T2 sequence (P04049 307-648 Y340D/Y341D): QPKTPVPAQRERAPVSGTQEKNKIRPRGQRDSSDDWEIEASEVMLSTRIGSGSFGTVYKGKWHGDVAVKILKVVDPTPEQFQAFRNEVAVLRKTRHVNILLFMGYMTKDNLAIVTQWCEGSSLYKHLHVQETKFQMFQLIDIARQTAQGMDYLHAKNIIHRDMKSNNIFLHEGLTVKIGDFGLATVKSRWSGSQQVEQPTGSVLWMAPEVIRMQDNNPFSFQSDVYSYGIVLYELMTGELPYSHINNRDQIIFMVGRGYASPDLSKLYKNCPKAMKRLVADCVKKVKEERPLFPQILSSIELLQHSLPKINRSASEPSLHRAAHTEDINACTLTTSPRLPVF
Briefly: Biochemical assay for C-Raf.1 (coupled pyruvate kinase/lactate dehydrogenase). Conditions: read-out: CRAF.1 IC50. Put shortly: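 NADH depletion at 340 nm monitored continuously for 6 h at 30° C, with rates taken over 4–5 h. The coupled pyruvate kinase/lactate dehydrogenase reaction used 1 mM ATP, 30.1 nM MEK substrate and 0.43 nM kinase at pH 7.5. IC50 was fitted sigmoidally from percent inhibition of serially diluted compound.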

For a further assay, the system named is Miapaca-2 cells. Briefly: MiaPaca-2 cell proliferation assay (1), resazurin, 96-well. Format: cell-based. Conditions: Homo sapiens, MIA PaCa-2, inhibition of cell proliferation. How it is done: MiaPaca-2 Cell Proliferation Assay (1)
Miapaca-2 cells (catalog #CRL-1420) are obtained from the American Type Culture Collect (ATTC, Manassas, VA). Briefly, cells were grown in DMEM supplemented with 10% characterized fetal bovine serum (Invitrogen, Carlsbad, CA), 2.5% New Zealand sourced horse serum and 1% Penicillin/Streptomycin/L-Glutamine at 37° C., 5% CO2, and 95% humidity. Cells are expanded until reaching 70-95% confluency at which point they are subcultured or harvested for assay use. A serial dilution of test compound is dispensed into a 96-well black clear bottom plate in triplicate. Three thousand cells are added per well in 200 μL complete growth medium in the 96-well plate. Plates are incubated for 67-72 hours at 37° C., 5% CO2, and 95% humidity. At the end of the incubation, 40 μL of a 440 μM solution of resazurin (Sigma, St. Louis, MO) in PBS is added to each well of the plate and plates are incubated for an additional 5-6 hours at 37° C., 5% CO2, and 95% humidity. Plates are read on a Synergy2 or equivalent reader (Biotek, Winooski VT) using an excitation of 540 nm and an emission of 600 nm. Data is analyzed using Prism software (GraphPad, San Diego, CA) to calculate IC50 values.

IC50 data for 36 compounds are collected here from US20230357179A1, “RAF KINASE INHIBITORS AND METHODS OF USE THEREOF” (Deciphera Pharmaceuticals, LLC, priority 2021, published 2023).

Each structure is given as a SMILES string.

T1 sequence (P15056 416-766): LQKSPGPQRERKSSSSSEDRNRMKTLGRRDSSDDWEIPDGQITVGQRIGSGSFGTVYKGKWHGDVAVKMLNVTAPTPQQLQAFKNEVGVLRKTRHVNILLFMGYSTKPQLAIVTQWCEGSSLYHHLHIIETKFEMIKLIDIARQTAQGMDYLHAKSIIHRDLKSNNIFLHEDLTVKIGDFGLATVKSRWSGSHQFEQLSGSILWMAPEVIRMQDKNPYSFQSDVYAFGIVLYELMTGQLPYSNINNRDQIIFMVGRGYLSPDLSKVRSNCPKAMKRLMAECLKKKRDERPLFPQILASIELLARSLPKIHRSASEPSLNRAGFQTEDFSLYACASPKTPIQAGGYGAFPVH

The IC50 is the concentration that inhibits the measured activity by half. On to `COC(=O)Nc1cc(-c2nccc(-c3cc(NC(=O)NCCC4(C)CC4)cnc3C)n2)ccn1` [Example 135], for which the IC50 is 100 to 500 nM at B-Raf kinase and no more than 100 nM on C-Raf kinase.

As to `COC(=O)Nc1cc(-c2cc(-c3cc(NC(=O)N4CCC(C)(C)CC4)cnc3C)cc(OCCO)n2)ccn1` [Example 166], the IC50 is 100 to 500 nM at B-Raf kinase and no more than 100 nM at C-Raf kinase.

In the case of `Cc1cc(F)c(NC(=O)NCCC(C)(C)F)cc1-c1cc(-c2ccnc(NC(=O)C3CC3)c2)cnn1` [Example 139], the values for the IC50 at B-Raf kinase, in the assay on Miapaca-2 cells and on C-Raf kinase were no more than 100 nM, 1000 to 10000 nM and no more than 100 nM, respectively.

As for `COC(=O)Nc1cc(-c2ccnc(-c3cc(NC(=O)NCCC(C)(C)OC)c(F)cc3C)n2)ccn1` [Example 171], the 50% inhibitory concentration (IC50) at B-Raf kinase and at C-Raf kinase was no more than 100 nM in each case.

Take `COC(=O)Nc1cc(-c2cc(-c3cc(NC(=O)NCCN4CCC4)c(F)cc3C)cc(OCCO)n2)ccn1` [Example 125]: the IC50 at B-Raf kinase and at C-Raf kinase was greater than 1000 nM throughout.

On to `Cc1cc(F)c(NC(=O)NC2CC(C)(C)C2)cc1-c1cc(OCCO)nc(-c2ccnc(NC(=O)C3CC3)c2)n1` [Example 167], for which the IC50 on B-Raf kinase and on C-Raf kinase was no more than 100 nM in each case.

`COC(C)(C)CCNC(=O)Nc1cc(-c2ccnc(-c3ccnc(NC(=O)C4CC4)c3)c2)c(F)cc1F` [Example 162]: the IC50 on B-Raf kinase and on C-Raf kinase was no more than 100 nM each time.

As for `Cc1ncc(NC(=O)NCCC(C)(C)F)cc1-c1nccc(-c2ccnc(NC(=O)C3CC3)c2)n1` [Example 130], the IC50 at B-Raf kinase is 100 to 500 nM; at C-Raf kinase, no more than 100 nM.

On to `COC[C@@H]1CCN(C(=O)Nc2cnc(C)c(-c3cc(OCCO)nc(-c4ccnc(NC(=O)OC)c4)c3)c2)C1` [Example 160], for which the IC50 on B-Raf kinase and at C-Raf kinase was 100 to 500 nM in each case.

As for `COC(=O)Nc1nccc(-c2cc(OCCO)cc(-c3cc(NC(=O)NCCC4(C)CC4)c(F)cc3C)c2)n1` [Example 122], the IC50 at B-Raf kinase was no more than 100 nM; in the assay on Miapaca-2 cells, 1000 to 10000 nM; at C-Raf kinase it was no more than 100 nM.

With `COC(=O)Nc1cc(-c2cc(-c3cc(NC(=O)NC[C@H]4CCO4)c(F)cc3C)cc(OCCO)n2)ccn1` [Example 96], the IC50 was 500 to 1000 nM at B-Raf kinase and 100 to 500 nM on C-Raf kinase.

On to `Cc1cc(F)c(NC(=O)NCCC2(C)CC2)cc1-c1cnnc(-c2ccnc(NC(=O)C3CC3)c2)c1` [Example 168], for which the IC50 at B-Raf kinase and on C-Raf kinase was no more than 100 nM each time.

Consider `Cc1ccc(NC(=O)Nc2cccc(C(F)(F)F)c2)cc1-c1cc(OCCO)nc(N2CCOCC2)c1` [Example 3, 1-(3-(2-(2-hydroxyethoxy)-6-morpholinopyridin-4-yl)-4-methylphenyl)-3-(3-(trifluoromethyl)phenyl)urea], for which the IC50 at B-Raf kinase is no more than 100 nM; in the assay with Miapaca-2 cells it was 1000 to 10000 nM; on C-Raf kinase, no more than 100 nM.

As for `COC1(CCNC(=O)Nc2cnc(C)c(-c3ccnc(-c4ccnc(NC(=O)C5CC5)c4)n3)c2)CC1` [Example 137], the IC50 is 100 to 500 nM at B-Raf kinase and no more than 100 nM at C-Raf kinase.

On to `COC(C)(C)CCNC(=O)Nc1cc(-c2cc(-c3ccnc(NC(=O)C4CC4)c3)cnn2)c(C)cc1F` [Example 142], for which the values for the IC50 on B-Raf kinase, with Miapaca-2 cells and at C-Raf kinase were no more than 100 nM, 1000 to 10000 nM and no more than 100 nM, respectively.

For the compound `CNC(=O)c1cc(-c2cnnc(-c3cc(NC(=O)NCCC(C)(C)F)c(F)cc3C)c2)ccn1` [Example 132], the IC50 lay within 100 to 500 nM at B-Raf kinase, 1000 to 10000 nM in the assay with Miapaca-2 cells and 100 to 500 nM at C-Raf kinase.

Regarding `COC[C@@H]1CCN(C(=O)Nc2cc(-c3cc(-c4ccnc(NC(=O)OC)c4)cnn3)c(C)cc2F)C1` [Example 149], the IC50 on B-Raf kinase and on C-Raf kinase was 500 to 1000 nM in each case.

Consider `Cc1cc(F)c(NC(=O)NCCC(C)(C)F)cc1-c1ccnc(-c2ccnc(NC(=O)C3CC3)c2)c1` [Example 159], for which the IC50 on B-Raf kinase and on C-Raf kinase was no more than 100 nM throughout.

Consider `Cc1ncc(NC(=O)NC2CC(C)(C)C2)cc1-c1cc(OCCO)nc(-c2ccnc(NC(=O)C3CC3)c2)c1` [Example 126], for which the IC50 at B-Raf kinase and at C-Raf kinase was no more than 100 nM each time.

`Cc1ncc(NC(=O)NCCC2(C)CC2)cc1-c1ccnc(-c2ccnc(NC(=O)C3(C#N)CC3)c2)c1` [Example 169]: the IC50 on B-Raf kinase and on C-Raf kinase was no more than 100 nM throughout.

Take `COC(=O)Nc1cc(-c2cc(-c3cc(NC(=O)NCCC4(C)CC4)cnc3C)cc(OCCO)n2)ccn1` [Example 151]: the IC50 on B-Raf kinase and on C-Raf kinase was no more than 100 nM throughout.

Regarding `Cc1cc(F)c(NC(=O)NCCC2(C)CC2)cc1-c1ccnc(-c2ccnc(NC(=O)C3CC3)c2)c1` [Example 134], the IC50 on B-Raf kinase and at C-Raf kinase was no more than 100 nM in each case.

As to `CNC(=O)c1cc(-c2cc(-c3cc(NC(=O)NCCC4(C)CC4)c(F)cc3C)cc(OCCO)n2)ccn1` [Example 164], the IC50 on B-Raf kinase and on C-Raf kinase was no more than 100 nM in each case.

As to `Cc1cc(F)c(NC(=O)NCCC(C)(C)F)cc1-c1cccc(-c2cc(NC(=O)C3CC3)ncn2)c1` [Example 127], the IC50 at B-Raf kinase and at C-Raf kinase was no more than 100 nM throughout.

Take `CNC(=O)c1cc(-c2cnnc(-c3cc(NC(=O)NCCC(C)(C)OC)cnc3C)c2)ccn1` [Example 154]: the IC50 on B-Raf kinase and on C-Raf kinase was greater than 1000 nM each time.

In the case of `COC(=O)Nc1cc(-c2cc(-c3cc(NC(=O)NCCC4COC4)c(F)cc3C)cc(OCCO)n2)ccn1` [Example 155], the IC50 on B-Raf kinase and on C-Raf kinase was no more than 100 nM each time.

On to `COC(=O)Nc1cc(-c2cnnc(-c3cc(NC(=O)NCCC(C)(C)OC)cnc3C)c2)ccn1` [Example 153], for which the IC50 at B-Raf kinase and on C-Raf kinase was 500 to 1000 nM each time.

For `Cc1ncc(NC(=O)NCCN2CCC2)cc1-c1cc(OCCO)nc(-c2ccnc(NC(=O)C3CC3)c2)c1` [Example 172], the IC50 on B-Raf kinase and at C-Raf kinase was greater than 1000 nM in each case.

As to `Cc1ncc(NC(=O)NCCC(C)(C)F)cc1-c1ccnc(-c2ccnc(NC(=O)C3CC3)c2)n1` [Example 136], the IC50 on B-Raf kinase and at C-Raf kinase was no more than 100 nM throughout.

For the compound `COC[C@H]1CCN(C(=O)Nc2cnc(C)c(-c3cc(OCCO)nc(-c4ccnc(NC(=O)OC)c4)c3)c2)C1` [Example 152], the IC50 at B-Raf kinase and on C-Raf kinase was 100 to 500 nM throughout.

For the compound `COC(=O)Nc1cc(-c2cc(-c3cc(NC(=O)NCCC(C)(C)OC)c(F)cc3F)ccn2)ccn1` [Example 163], the IC50 at B-Raf kinase and on C-Raf kinase was 100 to 500 nM each time.

As to `COC(=O)Nc1cc(-c2cc(-c3cc(NC(=O)N[C@H]4C[C@](C)(F)C4)cnc3C)cc(OCCO)n2)ccn1` [Example 157], the IC50 on B-Raf kinase and at C-Raf kinase was no more than 100 nM in each case.

Turning to `Cc1cc(F)c(NC(=O)NCCC(C)(C)F)cc1-c1ccnc(-c2ccnc(NC(=O)C3CC3)c2)n1` [Example 128], the IC50 on B-Raf kinase and on C-Raf kinase was no more than 100 nM throughout.

Regarding `COC(=O)Nc1cc(-c2nccc(-c3cc(NC(=O)NCCC(C)(C)OC)c(F)cc3C)n2)ccn1` [Example 129], the IC50 at B-Raf kinase and at C-Raf kinase was no more than 100 nM throughout.

For the compound `CCC(C)CCNC(=O)Nc1cnc(C)c(-c2ccnc(-c3ccnc(NC(=O)C4CC4)c3)c2)c1` (centres unmarked) [Example 124], the IC50 at B-Raf kinase and at C-Raf kinase was no more than 100 nM each time.

As to `COC(=O)Nc1cc(-c2cccc(-c3cc(NC(=O)NCCC4(OC)CC4)cnc3C)c2)ncn1` [Example 138], the IC50 is 100 to 500 nM at B-Raf kinase and no more than 100 nM on C-Raf kinase.
